According to US11590117B2, “Treatment of a hematologic malignancy with 2-(4-chlorophenyl)-n-((2-(2,6-dioxopiperidin-3-yl)-1-oxoisoindolin-5-yl)methyl)-2,2-difluoroacetamide” (priority 2016, dated 2023):
Read-outs that look alike come from different tables or passages of the source.

What was measured:
Assay in all cases: IncuCyte Kinetic Caspase-3/7 Apoptosis Assay
Format in all cases: cell-based
HNT-34 = conditions: Homo sapiens, read-out: Compound 1-induced Apoptosis EC50
Source text: (§1) Methods. Acute Myeloid Leukemia Cell Line Panel: Human AML cell lines, AML-193, F36-P, GDM-1, HL-60, HNT-34, Kasumi-1, Kasumi-3, KG-1, KG-1a, ML-2, MOLM-13, MUTZ-8, MV-4-11, NOMO-1, OCI-AML2, OCI-AML3, SIG-M5, TF-1, THP-1, and UT-7 were obtained from American Type Culture Collection (ATCC; Manassas, Va.) and Deutsche Sammlung von Mikroorganismen und Zellkulturen (DSMZ) (Germany) cell banks. The AML panel includes cell line(s) from each FAB classification (M0-M7) (Table 7).
(§2) Cell Culture Conditions: Cell lines were maintained in growth media containing 20% fetal bovine serum (FBS) (Hyclone Cat no. SH30910.03, Lot no. AZF188864; Corning REFno. 35-010-CV, Lot no. 35010124) supplemented with or without 10 ng/mL human recombinant granulocyte-macrophage colony stimulating factor (Sigma-Aldrich Cat no. SRP3050) (Table 8). Medium was purchased from ATCC (Cat no. 30-2001, 30-2002, 30-2003, 30-2005) and Gibco (REF no. 12561-056). Human recombinant granulocyte macrophage colony stimulating factor (GM-CSF) was expressed in Escherichia coli. The cell doubling times for each cell line were provided by ATCC and DSMZ. Cells were maintained in humidified incubators at 5% carbon dioxide (CO2). All cell lines were acclimated to Eagle's minimal essential medium (EMEM)+20% FBS with or without GM-CSF over 2 to 4 weeks prior to live cell imaging using IncuCyte Zoom (Essen Biosciences). The use of EMEM was necessary to eliminate background fluorescence caused by riboflavin in most media.
(§3) Incubation of Cell Cultures with Compound 1: Compound 1 was provided for studies by Celgene chemistry group at a stock concentration of 30 mM in 20 μL dimethyl sulfoxide (DMSO) frozen. Costar 96-well cell culture plates (Corning Cat no. 3595) were coated with 100 μL of 10 µg/mL fibronectin (Sigma-Aldrich Cat no. F1141) for 4 hours at 37° C. and immediately used or refrigerated overnight for later use. Cells (3000 to 6000 cells) were plated in growth medi in fibronectin-coated 96-well plates and incubated for a minimum of a few hours to overnight. Cells were incubated with a 12-point concentration response in triplicate with Compound 1 ([…]) including DMSO and Media controls. A 3-fold serial dilution of Compound 1 starting from a concentration of 200 μM in 0.6% DMSO (diluted in Media) was performed. For most sensitive cell lines, a 3-fold serial dilution of Compound 1 starting from a concentration of 20 μM in 0.6% DMSO (diluted in media) was performed. A volume of 5 μL or 10 μL for each dilution was added to 100 μL or 200 μL cells, respectively (0.3% DMSO final) and incubated for live cell imaging.
(§4) Live Cell Imaging on IncuCyte Zoom: Following incubation of cells with Compound 1, diluted Caspase 3/7 reagent (Essen Biosciences Cat no. 4440) is added to each well. The Caspase-3/7 reagent couples the activated caspase-3/7 recognition motif (DEVD) to NucView™488, a DNA intercalating dye. The cleavage of substrate by activated caspase-3/7 results in the release of the DNA dye and green fluorescent staining of nuclear DNA. This allows imaging of cells undergoing caspase-3/7 mediated apoptosis over time. Caspase-3/7 activation was quantified using the IncuCyte™ ZOOM basic analyzer. Red-labeled cell lines were also imaged over time using the IncuCyte™ ZOOM basic analyzer, for determination of both cell doubling time and Compound 1 effect on cell viability. Experiments were performed at least two times in each cell line.
(§5) Next, a 4 parameter log-logistic model was used to determine relative EC50 at each time point by the ‘drm’ function from the R ‘drc’ package (Ritz C, Streibig J C. Bioassay Analysis using R. J. Statist. Software 2005; 12(5):1-22). Goodness of fit was measured by R squared (coefficient of determination or the amount of variation explained by the model fit) of ≥80%, and EC50 parameter was assessed by having a ratio of standard error to the parameter of ≤40%, and the presence of at least one concentration point above and below the reported EC50. […]

OCI-AML3 = conditions: Homo sapiens, read-out: Compound 1-induced Apoptosis EC50
Source text: as §1, §2, §3, §4, §5

OCI-AML2 = conditions: Homo sapiens, read-out: Compound 1-induced Apoptosis EC50
Source text: as §1, §2, §3, §4, §5

KG-1 = conditions: Homo sapiens, read-out: Compound 1-induced Apoptosis EC50
Source text: as §1, §2, §3, §4, §5

Nomo-1 = conditions: Homo sapiens, read-out: Compound 1-induced Apoptosis EC50
Source text: as §1, §2, §3, §4, §5

UT-7 = conditions: Homo sapiens, read-out: Compound 1-induced Apoptosis EC50
Source text: as §1, §2, §3, §4, §5

MUTZ-8 = conditions: Homo sapiens, read-out: Compound 1-induced Apoptosis EC50
Source text: as §1, §2, §3, §4, §5

MV-4-11 = conditions: Homo sapiens, read-out: Compound 1-induced Apoptosis EC50
Source text: as §1, §2, §3, §4, §5

THP-1 = conditions: Homo sapiens
Source text: as §1, §2, §3, §4, §5

Kasumi-3 = conditions: Homo sapiens, read-out: Compound 1-induced Apoptosis EC50
Source text: as §1, §2, §3, §4, §5

HL-60 = conditions: Homo sapiens, read-out: Compound 1-induced Apoptosis EC50
Source text: as §1, §2, §3, §4, §5

With `O=C1CCC(N2Cc3cc(CNC(=O)C(F)(F)c4ccc(Cl)cc4)ccc3C2=O)C(=O)N1` (stereo not drawn) [Compound 1, 2-(4-chlorophenyl)-N-((2-(2,6-dioxopiperidin-3-yl)-1-oxoisoindolin-5-yl)methyl)-2,2-difluoroacetamide] the EC50 (HNT-34; 24 hr) was 7 nM, the EC50 (HNT-34; 48 hr) was 4 nM and the EC50 (HNT-34; 96 hr) was 2 nM. It also gave an EC50 (OCI-AML3; OCI-AML-3, 48 hr) of 896 nM, an EC50 (OCI-AML3; OCI-AML-3, 72 hr) of 971 nM and an EC50 (OCI-AML3; OCI-AML-3, 96 hr) of 418 nM. It also gave an EC50 (OCI-AML2; 24 hr) of 436 nM, an EC50 (OCI-AML2; 48 hr) of 81 nM and an EC50 (OCI-AML2; 72 hr) of 41 nM. For the same compound, the EC50 (OCI-AML2; 96 hr) was 38 nM, the EC50 (KG-1; 12 hr) was 53 nM and the EC50 (KG-1; 24 hr) was 108 nM. The EC50 (KG-1; 48 hr) was 39 nM, the EC50 (KG-1; 72 hr) was 26 nM and the EC50 (KG-1; 96 hr) was 25 nM. It also gave an EC50 (Nomo-1; 24 hr) of 63 nM, an EC50 (Nomo-1; 48 hr) of 133 nM and an EC50 (Nomo-1; 72 hr) of 84 nM. For the same compound, the EC50 (Nomo-1; 96 hr) was 66 nM, the EC50 (UT-7; UT7, 48 hr) was 231 nM and the EC50 (UT-7; UT7, 72 hr) was 218 nM. The EC50 (UT-7; UT7, 96 hr) was 168 nM, the EC50 (MUTZ-8; 24 hr) was 88 nM and the EC50 (MUTZ-8; 48 hr) was 40 nM. For the same compound, the EC50 (MUTZ-8; 72 hr) was 18 nM, the EC50 (MUTZ-8; 96 hr) was 15 nM and the EC50 (MV-4-11; MV4-11, 12 hr) was 227 nM. The EC50 (MV-4-11; MV4-11, 24 hr) was 167 nM, the EC50 (MV-4-11; MV4-11, 48 hr) was 32 nM and the EC50 (MV-4-11; MV4-11, 72 hr) was 16 nM. For the same compound, the EC50 (MV-4-11; MV4-11, 96 hr) was 17 nM, the EC50 (THP-1; 48 hours, read-out: apoptosis EC50) was > 10000 nM and the EC50 (THP-1; 48 hours, read-out: apoptosis EC50 48hr) was > 10000 nM. For the same compound, the EC50 (THP-1; all time points, read-out: apoptosis EC50) was > 10000 nM, the EC50 (Kasumi-3; 12 hr) was 54 nM and the EC50 (Kasumi-3; 24 hr) was 10 nM. The EC50 (Kasumi-3; 48 hr) was 4 nM, the EC50 (Kasumi-3; 72 hr) was 3 nM and the EC50 (Kasumi-3; 96 hr) was 1 nM. The EC50 (HL-60; 24 hr) was 73 nM, the EC50 (HL-60; 48 hr) was 15 nM and the EC50 (HL-60; 72 hr) was 8 nM.
